Converted amounts (≈) assume the structure as drawn.
Key:
Assay in all cases: Minimum inhibitory concentration (broth microdilution, CLSI)
Assay type in all cases: cell-based
[1] = system: Proteus mirabilis HDBPM 40; settings: HDBPM40
Procedure: (§1) 103 bacterial strains used for the minimum inhibitory concentration test were frozen in a −80° C. ULT freezer and thawed 2 days before use. A small amount of frozen microorganism bacteria were scraped using a sterile inoculating loop, streaked onto a suitable solid culture dish for inoculation, and then cultured for about 20 h at 35 t 2° C. in a normal incubator. • Proteus mirabilis HDBPM 40: MA, normal atmospheric environment • The remaining 102 strains of bacteria: TSA, normal atmospheric environment
(§2) 5-10 colonies with similar morphology were picked from the culture dish using a sterile inoculating loop and then re-streaked onto a corresponding solid culture dish. Then the dish was incubated in a normal incubator at 35 t 2° C. for about 20 h.
(§3) 5-10 single microbial colonies were picked from the solid culture dish, resuspended in 500 μL of sterile normal saline (0.9% NaCl), and adjusted to an OD600 of about 0.15 with a spectrophotometer.
(§4) The bacteria were then diluted 300-fold with 1.02×CAMHB to an inoculation concentration of 2×10^5 CFU/mL.
(§5) • There were a total of 3 assay plate patterns, one of which was used for each assay. • 8 rows of the assay plate (rows A-H) were for 8 test compounds, respectively. The highest test concentration of the compounds was 16, 32 or 64 μg/mL, and each compound was diluted 2-fold. • Growth control (GC): a medium containing microbial inoculum (1.02×CAMHB) and dimethylsulfoxide (DMSO) but no compound.
(§6) The test and reference compounds were dissolved in DMSO or H2O to prepare 6.4 mg/mL stock solutions. The stock solutions were diluted to prepare standby solutions with certain concentrations, and the volumes of the standby solutions were determined according to the experimental design. Corresponding volumes of the standby solutions were transferred to the starting wells of a dilution plate (A1-H1), and half the starting-well volume of DMSO to the other wells. Each compound was diluted 2-fold sequentially from column 1 to column 11 (e.g., transferring 30 μL of DMSO to columns 2-12 first, then pipetting 30 μL of the compounds from column 1 to column 2 and mixing them well, then pipetting 30 μL of the compounds from column 2 to column 3 and mixing them well, then pipetting 30 μL of the compounds from column 3 to column 4 and mixing them well, and so on to column 11).
(§7) 1 or 2 μL of the compounds and DMSO were transferred from the compound plate to corresponding wells of the assay plates.
(§8) 98 μL of corresponding bacterial inocula were added to the assay plates.
(§9) After addition, the assay plates were covered with sterile covers. The mixtures in the assay plates were centrifuged in a centrifuge at 800 rpm for 30 s, mixed well on a microplate shaker at 400 rpm for 1 min, and incubated in a normal incubator at 35 t 2° C. for 20-24 h.
(§10) The assay plates were placed on a plate reading device, and the speculum was adjusted to observe and record the growth condition of bacteria in each well. In the mean time, each assay plate was photographed with QCount system.
(§11) The minimum inhibitory concentration of each compound was recorded by reference to guidelines from the Clinical and Laboratory Standards Institute.
(§12) The minimum inhibitory concentrations of the compounds against experimental strains were tested in this study by reference to the medium microdilution method as indicated by the Clinical and Laboratory Standards Institute. Compounds were diluted two-fold in 96-well plates from the highest detection concentration of 16, 32 or 64 μg/mL. The bacterial inocula in the assay plates were thawed from corresponding medium plates and diluted in 1.02×CAMHB, while growth controls (GC wells) were set up in the assay plates. The minimum inhibitory concentration of each compound against different bacteria was observed and recorded after the assay plates were incubated in a normal incubator at 35 t 2° C. for about 20 h. The minimum inhibitory concentration values for the different compounds are listed in the list below.

[2] = system: Escherichia coli HDBEC 30048; settings: HDBEC30048
Procedure: as §1, §2, §3, §4, §5, §6, §7, §8, §9, §10, §11, §12

[3] = system: Escherichia coli HDBEC 30008; settings: HDBEC30008
Procedure: as §1, §2, §3, §4, §5, §6, §7, §8, §9, §10, §11, §12

[4] = system: Pseudomonas aeruginosa HDBPA 5679; settings: HDBPA5679
Procedure: as §1, §2, §3, §4, §5, §6, §7, §8, §9, §10, §11, §12

[5] = system: Escherichia coli HDBEC 30016; settings: HDBEC30016
Procedure: as §1, §2, §3, §4, §5, §6, §7, §8, §9, §10, §11, §12

[6] = system: Klebsiella pneumoniae HDBKP 9153; settings: HDBKP9153
Procedure: as §1, §2, §3, §4, §5, §6, §7, §8, §9, §10, §11, §12

[7] = system: Klebsiella pneumoniae HDBKP 9249; settings: HDBKP9249
Procedure: as §1, §2, §3, §4, §5, §6, §7, §8, §9, §10, §11, §12

[8] = system: Klebsiella pneumoniae HDBKP 30006; settings: HDBKP30006
Procedure: as §1, §2, §3, §4, §5, §6, §7, §8, §9, §10, §11, §12

[9] = system: Enterobacter cloacae HDBECL 30030; settings: HDBECL30030
Procedure: as §1, §2, §3, §4, §5, §6, §7, §8, §9, §10, §11, §12

Row | SMILES | MIC [1] [µg/mL] | MIC [2] [µg/mL] | MIC [3] [µg/mL] | MIC [4] [µg/mL] | MIC [5] [µg/mL] | MIC [6] [µg/mL] | MIC [7] [µg/mL] | MIC [8] [µg/mL] | MIC [9] [µg/mL]
1 | C[n+]1cc(-c2cc(C(=O)NC[C@@H]3[C@H](NC(=O)/C(=N\OC(C)(C)C(=O)O)c4csc(N)n4)C(=O)N3S(=O)(=O)O)on2)cn1CCCN [Compound I-1] | < 4 | > 16 | 4 to 8 | > 16 | > 16 | > 16 | < 4 | 4 to 8 | < 4
2 | C[n+]1cc(-c2ncc(C(=O)NC[C@@H]3[C@H](NC(=O)/C(=N\OC(C)(C)C(=O)O)c4csc(N)n4)C(=O)N3S(=O)(=O)O)s2)cn1CCCN [Compound I-2] | < 4 | > 16 | < 4 | > 16 | > 16 | < 4 | < 4 | < 4 | < 4
3 | CC(C)(O/N=C(\C(=O)N[C@@H]1C(=O)N(S(=O)(=O)O)[C@@H]1CNC(=O)c1cc(-c2cc[n+](CCNC(=N)N)cc2)no1)c1csc(N)n1)C(=O)O [Compound I-3] | < 4 | > 16 | < 4 | > 16 | > 16 | > 16 | < 4 | 4 to 8 | < 4
4 | CC(C)(O/N=C(\C(=O)N[C@@H]1C(=O)N(S(=O)(=O)O)[C@@H]1CNC(=O)c1cc(-c2cc[n+](CCN)cc2)no1)c1csc(N)n1)C(=O)O [Compound I-4] | < 4 | > 16 | 4 to 8 | > 16 | > 16 | > 16 | < 4 | > 16 | 4 to 8
5 | CC(C)(O/N=C(\C(=O)N[C@@H]1C(=O)N(S(=O)(=O)O)[C@@H]1CNC(=O)c1cc([C@@H]2CCNC2)no1)c1csc(N)n1)C(=O)O [Compound I-5] | < 4 | > 16 | < 4 | > 16 | > 16 | > 16 | < 4 | > 16 | < 4
6 | CC(C)(O/N=C(\C(=O)N[C@@H]1C(=O)N(S(=O)(=O)O)[C@@H]1CNC(=O)c1cc(C2CNC2)no1)c1csc(N)n1)C(=O)O [Compound I-6] | < 4 | > 16 | < 4 | > 16 | > 16 | > 16 | < 4 | > 16 | < 4
7 | CC(C)(O/N=C(\C(=O)N[C@@H]1C(=O)N(S(=O)(=O)O)[C@@H]1CNC(=O)c1cc([C@@H]2CCN(C(=O)c3ccc(O)c(O)c3F)C2)no1)c1csc(N)n1)C(=O)O [Compound I-8] | < 4 | < 4 | < 4 | < 4 | < 4 | < 4 | 4 to 8 (≈ 5.2 to 10.4 µM) | 4 to 8 (≈ 5.2 to 10.4 µM) | < 4
8 | C[n+]1cc(-c2ncc(C(=O)NC[C@@H]3[C@H](NC(=O)/C(=N\OC(C)(C)C(=O)O)c4csc(N)n4)C(=O)N3S(=O)(=O)O)s2)cn1CC(N)CN (stereo partly drawn) [Compound I-9] | < 4 | > 16 | < 4 | > 16 | > 16 | 8 to 16 | < 4 | 4 to 8 | < 4

From US20230110378A1, “MONOBACTAM COMPOUND AND USE THEREOF” (EVOPOINT BIOSCIENCES CO., LTD., priority 2019, published 2023)
